In ChEMBL document CHEMBL4266048, “Halogenated Meroditerpenoids from a South Pacific Collection of the Red Alga Callophycus serratus” (J Nat Prod, 2018):
Activity calls are given as the source filed them. No cut-off for these calls is given here.

Test system: HL-60
Assay: Cytotoxicity against human HL60 cells after 48 hrs by MTT assay
Assay type: functional, cell-based
Settings: for IC50: HL-60, 48 h

SMILES	IC50	Activity
CC[C@H](/C=C(/C)[C@@H]1C[C@@H](OC)C[C@H](O)C(C)(C)[C@@]2(O)O[C@@H](C[C@@H](OC)[C@H](O)C(=O)O1)C[C@@H](OC)[C@H]2O)CO	10 µM	–
C=C1CC[C@@H](Br)C(C)(C)[C@H]1CC[C@@]1(C)[C@H](Cc2cc(Br)ccc2O)/C(=C/I)CC[C@@H]1Br	5.1 µM	–
CC1=C2Cc3cc(ccc3O)C(=O)OC(C)(C)[C@H](Br)CC[C@]3(C)O[C@H]3C[C@]2(C)[C@@H](Br)CC1 [BROMOPHYCOLIDE T]	6 µM	–
C=C1CC=CC(C)(C)[C@H]1CC[C@@]1(C)[C@H](Cc2cc(Br)ccc2O)/C(=C/I)CC[C@@H]1Br	–	inactive
CC1=C2Cc3cc(ccc3O)C(=O)O[C@H](C(C)(C)Br)CC[C@](C)(O)[C@H](Br)CC[C@]2(C)[C@@H](Br)CC1	6.2 µM	–
